Data as given in paper PMC6910946, “Multiple roles of Bet v 1 ligands in allergen stabilization and modulation of endosomal protease activity” (Allergy, 2019).
Read-outs that look alike come from different tables or passages of the source.

Assays:
Bet_v_1 [1] = molecular target: T1, Bet_v_1 (Betula pendula, UniProt P15494); experiment: Thermal stability and secondary structure of Bet v 1 by circular dichroism (CD); format: physicochemical, Betula verrucosa; conditions: for increased melting point (T m) of Bet v 1 bound to ligand: CD and FTIR spectroscopy; for ΔCD: change of Tm of Bet v 1 versus no ligand
T1 construct: made in house
T1 sequence (P15494 1-160): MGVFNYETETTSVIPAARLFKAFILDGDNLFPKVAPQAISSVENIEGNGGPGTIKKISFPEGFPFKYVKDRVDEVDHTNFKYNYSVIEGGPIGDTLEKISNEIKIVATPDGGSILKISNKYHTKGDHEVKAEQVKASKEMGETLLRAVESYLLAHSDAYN
From the text: Surface acoustic wave (SAW) technology and NMR spectroscopy were used to observe the interaction of Bet_v_1 with the selected compounds, including determination of the dissociation constant (K d). The influence of ligand binding on the secondary structure elements and the thermal stability of Bet_v_1 was monitored using circular dichroism (CD, JASCO J‐815 spectropolarimeter, Jasco) and Fourier transform infrared (FTIR) spectroscopy (Tensor II FTIR system, Bruker Optics Inc). A detailed description of these methods is available (Appendix [Link], [Link]).
(§1) The influence of ligand binding on the secondary structure elements and the thermal stability of Bet v 1 was addressed by circular dichroism (CD) and Fourier transform infrared (FTIR) spectroscopy. CD spectroscopy was performed with a JASCO J-815 spectropolarimeter fitted with a PTC-423S Peltier-type single position cell holder (Jasco, Tokyo, Japan) over the wavelength range 190 to 260 nm. For measurement, Bet v 1 with and without ligand was diluted in a 10 mM potassium phosphate buffer to a concentration of 0.1 mg/ml. The thermal stability analysis was recorded at 222 nm. The protein was denatured with a temperature slope of 1°C/min from 20 to 95°C.

Bet_v_1 [2] = molecular target: T1, Bet_v_1; experiment: Thermal stability of Bet v 1 by FTIR spectroscopy; format: physicochemical, Betula verrucosa; conditions: for ΔFTIR: change of Tm of Bet v 1 versus no ligand; for T m FTIR: melting point of Bet v 1 with or without ligand
From the text: Surface acoustic wave (SAW) technology and NMR spectroscopy were used to observe the interaction of Bet_v_1 with the selected compounds, including determination of the dissociation constant (K d). The influence of ligand binding on the secondary structure elements and the thermal stability of Bet_v_1 was monitored using circular dichroism (CD, JASCO J‐815 spectropolarimeter, Jasco) and Fourier transform infrared (FTIR) spectroscopy (Tensor II FTIR system, Bruker Optics Inc). A detailed description of these methods is available (Appendix [Link], [Link]). […]
Determination of secondary structure elements and thermal stability
as §1, with “1° C/min” for “1°C/min”, “95° C.” for “95°C.”
FTIR amide 1 and amide 2 spectra of Bet v 1 at concentrations of 1.0-2.0 mg/ml with and without ligand were recorded with an AquaSpec transmission cell adapted to a Tensor II FTIR system (Bruker Optics Inc., Billerica, MA, USA). Measurement was performed at a constant temperature (25° C), controlled by a Haake F8 thermostat (Thermo Electron, Germany) with internal temperature control. For data analysis, OPUS spectroscopy software 6.0 (Bruker Optics Inc., Billerica, MA, USA) was used. The Savitzky-Golay algorithm was applied on […]
vector-normalized amide 1 spectra (25 smoothing points) to obtain the second derivative. For the quantification of secondary structure elements, a Quant2 method of the OPUS software was used. For thermal stability analysis, spectra were recorded with a BioATR II unit (Bruker Optics Inc., Billerica, MA, USA) at 25 to 95° C (dT=2.5K). The determined relative signal change in the amide I band by creating a difference spectrum for each temperature point was used to calculate the melting point (Tm). […]

[3] = tested on: human monocyte‐derived dendritic cells (moDCs); experiment: Activation and cytokine secretion of human moDCs; format: cell-based; conditions: Bet v 1 in complex with ligand, 24 h, no LPS co-stimulation
Method: The ability of ligand‐loaded Bet_v_1 to induce IgE‐antigen cross‐linking and basophil degranulation was assessed by mediator‐release assays using rat basophil (RBL‐2H3) cells, transfected with the human high‐affinity IgE receptor (FcεRI), as previously described.2, 24 In vitro uptake of labeled Bet_v_1 was performed using CD11c^+ murine bone marrow–derived dendritic cells (BMDCs). The maturation of human monocyte‐derived dendritic cells (moDCs) was analyzed as previously described.2 T‐cell proliferation assays using CD4^+ T‐cell hybridomas were performed as previously described.17 A detailed description of the in vitro assays is available (Appendix [Link], [Link]).
Immature moDCs from PBMCs of either healthy/non-atopic donors (n=5) or atopic patients (n=7) were isolated and cultured as described elsewhere.^6 Cell viability using the Aqua® dye (Invitrogen, Carlsbad, CA, USA), expression of CD1a (eBioscience, Inc., San Diego, CA, USA) and loss of CD14 (BD Biosciences) expression were analyzed by flow cytometry on a Navios flow cytometer (Beckman Coulter, Brea, CA, USA). Cells (1x10^6 cells/ml) were stimulated for 24 hours with 1 µg/ml of Bet v 1 either alone or in complex with one of the three ligands (DOC, PPE1 or Q3OS). As a control, unstimulated moDCs and the individual ligands without Bet v 1 were used at the same concentrations. The cell supernatant was frozen for the analysis of cytokine secretion. Of note, no LPS co-stimulation was induced. The following maturation markers were investigated: CD40 (eBioscience), HLA-DR, CD80, CD83 and CD86 (BD Biosciences). Cytokine expression of CCL17, IL-1β, IL-10 (BD Biosciences), TNFα and IL-6 (eBioscience) was determined by ELISA. Statistical analysis was performed using one-way ANOVA with a Bonferroni post-test to compare all groups. The study was approved by the ethics committee of the medical faculty of Technical University of Munich (54/17 S).

[4] = melting point of Bet v 1 with or without ligand, 222 nm

Row | Compound | increased melting point (T m) of Bet v 1 bound to ligand (Bet_v_1 [1]) | secondary structure content of Bet v 1 (Bet_v_1 [1]; CD and FTIR, Figure S4) | ΔCD (Bet_v_1 [1]) | T m CD (Bet_v_1 [1]; [4]) | ΔFTIR (Bet_v_1 [2]) | T m FTIR (Bet_v_1 [2]) | maturation marker expression and Th polarization‐associated cytokines [3] | T m CD (Bet_v_1 [1]) | secondary structure content of Bet v 1 (Bet_v_1 [1])
1 | CCC1C(=O)CC(O)C1/C=C/C(O)CCCCCCCC(=O)O (stereo not shown) [PPE1, E1 phytoprostanes] | ~7 °C | did not significantly alter its secondary structure content | +6.94 °C | 70.62 °C | +5.93 °C | 69.31 °C | None of the above described readouts was influenced |  | 
2 | C[C@H](CCC(=O)O)[C@H]1CC[C@H]2[C@@H]3CC[C@@H]4C[C@H](O)CC[C@]4(C)[C@H]3C[C@H](O)[C@]12C [DOC, sodium deoxycholate, reference compound] | approximately 4 °C |  |  |  | +3.22 °C | 66.6 °C | None of the above described readouts was influenced | 67.44 °C | did not significantly alter its secondary structure content
3 | O=c1c(O[C@@H]2O[C@H](CO)[C@@H](O)[C@H](O)[C@H]2O[C@@H]2O[C@H](CO)[C@@H](O)[C@H](O)[C@H]2O)c(-c2ccc(O)c(O)c2)oc2cc(O)cc(O)c12 [Q3OS, quercetin 3‐O‐sophoroside] |  | did not significantly alter its secondary structure content | +0.36 °C | 64.04 °C | +1.88 °C | 65.26 °C | None of the above described readouts was influenced |  | 
